Test results as given in US20100273876A1, “ANTIBACTERIAL FORMULATION COMPRISING A DIALKYL SULPHOSUCCINATE AND A CARBANILIDE ANTIBACTERIAL AGENT” (priority 2007, published 2010).
In brackets after ≈: the same amount, converted by molar mass. Read-outs that look alike come from different tables or passages of the source.

What was measured:
[1] = system: Clost. difficile ATCC 7000057; assay: (S)DDA disc diffusion; format: cell-based, Clostridium difficile; conditions: 200 μg per disc
Method: (§1) A sterile paper disc was impregnated with a sample of the test compound in a suitable solvent and 30 minutes allowed for the solvents to evaporate (where possible). The disc was then placed on an agar plate onto which the test micro-organism had been inoculated. The plate was then incubated under the conditions described above, following which it was examined visually for signs of microbial growth. If the test compound had antimicrobial activity, a circular zone of no growth would be obtained around the disc. The diameter of this zone of “inhibition” was measured using a ProtoCOL™ automated zone sizer (Synbiosis, Cambridge, UK). In general, a greater diameter and/or area of the zone of inhibition indicates a greater antimicrobial activity in the relevant test compound, although other factors such as test compound mobility through the agar gel may also influence the result.
(§2) Two test a compounds A and B were placed on a single paper disc and the above described DDA procedure repeated. […]
(§3) The activities of DOSS and TCC were determined, using (S)DDAs, against a panel of further test micro-organisms, namely B. cereus ATCC 11778, Bact. fragilis ATCC 25285, Clost. difficile […] and E. faecalis ATCC 29212. […]

C. jeikeium NCTC 11915 = assay: (S)DDA disc diffusion; format: cell-based, Corynebacterium jeikeium; conditions: for DDA: 200 μg per disc
Method: (§4) Several Corynebacterium test species were also used in this study, namely C. mucifaciens ATCC 700355, C. striatum NCTC 764, C. xerosis NCTC 11861 and C. jeikeium NCTC 11915. These Gram-positive pathogens are closely related to organisms (aerobic diphtheroids of the genus Corynebacterium) that cause body odour. C. mucifaciens and C. striatum were cultured and maintained on Mueller-Hinton Medium (agar and broth) and were incubated aerobically at 37° C. for 24 hours. C. xerosis and C. jeikeium were cultured and maintained on Mueller-Hinton Medium containing 5% (v/v) lysed horse blood (agar and broth) and were incubated aerobically at 37° C. for 72 hours. A sterile paper disc was impregnated with a sample of the test compound in a suitable solvent and 30 minutes allowed for the solvents to evaporate (where possible). The disc was then placed on an agar plate onto which the test micro-organism had been inoculated. The plate was then incubated under the conditions described above, following which it was examined visually for signs of microbial growth. If the test compound had antimicrobial activity, a circular zone of no growth would be obtained around the disc. The diameter of this zone of “inhibition” was measured using a ProtoCOL™ automated zone sizer (Synbiosis, Cambridge, UK). In general, a greater diameter and/or area of the zone of inhibition indicates a greater antimicrobial activity in the relevant test compound, although other factors such as test compound mobility through the agar gel may also influence the result. Two test a compounds A and B were placed on a single paper disc and the above described DDA procedure repeated. An increase in diameter of the zone of inhibition, compared to the greater of the zone diameters for the two compounds individually, was taken to indicate potential antimicrobial synergy. In practical terms, an increase of greater than 5 mm could be treated as significant. The activities of DOSS and TCC were determined, using (S)DDAs, against the test organisms C. mucifaciens ATCC 700355, C. striatum NCTC 764, C. xerosis NCTC 11861 and C. jeikeium NCTC 11915. 200 μg of the DOSS and/or the TCC were loaded onto each disc. All the experiments were conducted in triplicate.

E. faecalis ATCC 29212 = assay: (S)DDA disc diffusion; format: cell-based, Enterococcus faecalis; conditions: 200 μg per disc
Method: as §1, §2, §3

S. aureus ATCC 29213 = assay: (S)DDA disc diffusion; format: cell-based, Staphylococcus aureus; conditions: 200 μg per disc
Method: as §1
(§5) Two test a compounds A and B were placed on a single paper disc and the above described DDA procedure repeated. An increase in diameter of the zone of inhibition, compared to the greater of the zone diameters for the two compounds individually, was taken to indicate potential antimicrobial synergy. In practical terms, an increase of greater than 5 mm could be treated as significant.
(§6) The activities of DOSS and TCC against S. aureus ATCC 29213 and EMRSA 15 were determined using (S)DDAs as described above. 200 μg of the DOSS and/or the TCC were loaded onto each disc. All the experiments were conducted in triplicate.

EMRSA 15 = assay: (S)DDA disc diffusion; format: cell-based, Staphylococcus aureus; conditions: 200 μg per disc
Method: as §1, §5, §6

P. acnes NCTC 737 = assay: Minimum inhibitory concentration (MIC) assay, liquid medium; format: cell-based, Propionibacterium acnes
Method: The propionibacteria were cultured and maintained on Wilkins-Chalgren Anaerobe Medium (agar and broth) at pH 6.0; all cultures were incubated anaerobically at 37° C. for 72 hours.
(§7) This is a standard international method for quantitatively assessing the antimicrobial activity of a compound in a liquid medium. The method used a sterile 96-well microtitre plate, capable of holding about 200 μl of liquid per well. The wells contained liquid culture medium and ranges of decreasing concentrations of the relevant test compound in doubling dilutions (eg, 1000, 500, 250, 125 . . . μg/ml, etc. down to 0.49 μg/ml). The culture media were as described above.
(§8) The wells were inoculated with a liquid suspension of freshly grown micro-organism and incubated under the conditions described above. After incubation, the microtitre plate was examined visually (with the aid of a light box) for cloudiness in each well, which would indicate microbial growth. The MIC value was recorded as the lowest concentration of test compound required to inhibit microbial growth, ie, the lowest concentration for which the liquid in the well remained clear.
(§9) The assays included both negative (culture medium with no micro-organisms) and positive (culture medium plus diluting solvent plus micro-organism) controls.

[2] = system: C. mucifaciens ATCC 700355; assay: (S)DDA disc diffusion; format: cell-based, Corynebacterium mucifaciens; conditions: for DDA: 200 μg per disc
Method: as §4

[3] = system: Por. gingivalis NCTC 11834; assay: MIC assay, liquid medium; format: cell-based, Porphyromonas gingivalis
Method: The P. gingivalis strains were cultured and maintained on Wilkins-Chalgren Anaerobe Medium (agar and broth) at pH 7.0; all cultures were incubated anaerobically at 37° C. for 5-7 days.
as §7, §8, §9

C. striatum NCTC 764 = assay: MIC assay, liquid medium; format: cell-based, Corynebacterium striatum
Method: Several Corynebacterium test species were also used in this study, namely C. mucifaciens ATCC 700355, C. striatum NCTC 764, C. xerosis NCTC 11861 and C. jeikeium NCTC 11915. These Gram-positive pathogens are closely related to organisms (aerobic diphtheroids of the genus Corynebacterium) that cause body odour. C. mucifaciens and C. striatum were cultured and maintained on Mueller-Hinton Medium (agar and broth) and were incubated aerobically at 37° C. for 24 hours. C. xerosis and C. jeikeium were cultured and maintained on Mueller-Hinton Medium containing 5% (v/v) lysed horse blood (agar and broth) and were incubated aerobically at 37° C. for 72 hours.
This is a standard international method for quantitatively assessing the antimicrobial activity of a compound in a liquid medium. The method used a sterile 96-well microtitre plate, capable of holding about 200 μl of liquid per well. […]
The wells were inoculated with a liquid suspension of freshly grown micro-organism and incubated under the conditions described above. […] The MIC value was recorded as the lowest concentration of test compound required to inhibit microbial growth, ie, the lowest concentration for which the liquid in the well remained clear. […]

[4] = 200 μg DOSS + 200 μg TCC on one disc

Row | Molecule | DDA [1] | DDA (C. jeikeium NCTC 11915) | DDA (E. faecalis ATCC 29212) | DDA (S. aureus ATCC 29213) | DDA (EMRSA 15) | MIC (P. acnes NCTC 737; Cutibacterium acnes, NCTC737, read-out: MIC) | DDA [2] | SDDA area increase (C. jeikeium NCTC 11915) | SDDA increase (C. jeikeium NCTC 11915) | SDDA with TCC (C. jeikeium NCTC 11915; [4]) | MIC (P. acnes NCTC 737) | SDDA area increase [2] | SDDA increase [2] | SDDA with TCC [2, 4] | MIC [3] | MIC (C. striatum NCTC 764)
1 | O=C(Nc1ccc(Cl)cc1)Nc1ccc(Cl)c(Cl)c1 [TCC, N-(4-chlorophenyl)-N′-(3,4-dichlorophenyl) urea] | 0.0 mm | 0.0 mm | 9.68 mm | 12.84 mm | 12.42 mm | 0.12 µg/mL (≈ 0.38 µM) | 9.59 mm |  |  |  |  |  |  |  |  | 
2 | dioctyl sodium sulphosuccinate [DOSS] | 0.0 mm | 0.0 mm | 10.31 mm | 12.22 mm | 12.42 mm |  | 12.92 mm | ∞ | 13.81 mm | 13.81 mm | 15.6 µg/mL | 165.45% | 8.13 mm | 21.05 mm | <0.49 µg/mL | 62.5 µg/mL
